Laboratory results: ChEMBL document CHEMBL1833843, “Diarylpropanes and an arylpropyl quinone from Combretum griffithii” (J Nat Prod, 2011)
≈ marks a conversion by molar mass, not a printed value. Calls of active or inactive are those of the source. No cut-off for these calls is given here.

Experiments:
KB = experiment: Cytotoxicity against human KB cells by sulforhodamine B assay; type: functional, cell-based
Plasmodium falciparum [1] = experiment: Antimalarial activity against multidrug-resistant Plasmodium falciparum K1 assessed as [3H]-hypoxanthine uptake at 10 ug/mL after 24 hrs by scintillation counting; type: functional, organism-based
[2] = test system: Mycobacterium tuberculosis; experiment: Antimycobacterial activity against Mycobacterium tuberculosis H37Ra by microplate alamar blue assay; type: functional
MCF7 = experiment: Cytotoxicity against human MCF7 cells by sulforhodamine B assay; type: functional, cell-based
NCI-H187 = experiment: Cytotoxicity against human NCI-H187 cells by sulforhodamine B assay; type: functional, cell-based
Plasmodium falciparum [3] = experiment: Antimalarial activity against multidrug-resistant Plasmodium falciparum K1 assessed as [3H]-hypoxanthine uptake after 24 hrs by scintillation counting

COc1cc(CCCc2cc(OC)c(O)cc2OC)ccc1O [GRIFFITHANE A]
IC50 (KB): 2.13 µg/mL (≈ 6.69 µM)
Activity (Plasmodium falciparum [1]): inactive

COc1cc(O)c(O)cc1CCCc1ccc(OC)c(OC)c1
Activity (Plasmodium falciparum [1]): inactive

COc1ccc(CCCc2ccc(O)c(OC)c2)c(O)c1
IC50 (KB): 2.18 µg/mL (≈ 7.56 µM)
MIC [2]: 3.13 µg/mL (≈ 10.9 µM)
Activity (Plasmodium falciparum [1]): inactive

COC1=CC(=O)C(CCCc2ccc(O)c(OC)c2)=CC1=O [GRIFFITHANE D]
IC50 (KB): 1.42 µg/mL (≈ 4.7 µM)
IC50 (MCF7): 6.75 µg/mL (≈ 22.3 µM)
Activity (Plasmodium falciparum [1]): inactive
IC50 (NCI-H187): 1.08 µg/mL (≈ 3.57 µM)

C[C@H]1[C@@H](O)O[C@@H]2O[C@@]3(C)CC[C@H]4[C@H](C)CC[C@@H]1[C@@]24OO3 [ARTENIMOL]
IC50 (Plasmodium falciparum [3]): 0.001 µg/mL (≈ 0.00352 µM)

COc1cc(CCCc2ccc(OC)c(O)c2OC)ccc1O [GRIFFITHANE B]
IC50 (KB): 5.67 µg/mL (≈ 17.8 µM)
Activity (Plasmodium falciparum [1]): inactive

NNC(=O)c1ccncc1 [ISONIAZID]
MIC [2]: 0.23 µg/mL (≈ 1.68 µM)
